Experimental data published in PubChem BioAssay AID1963434 (Molecular Pharmacology Branch, DTP, NCI, 2024).
“And” between values parts separate entries of the source, which are not always exact repeats. Identical values can stand only once.

System: 755483-174-R-J1-PDC complex spheroid growth, percent test/control
Test: Anticancer human tumor 755483-174-R-J1-PDC patient-derived rhabdomyosarcoma cell line growth inhibition [Asc]
Conditions: for viability, T/C: stronger effect = lower value
Method: Multicellular complex tumor spheroid response to apoptosis pathway targeting inhibitors Alrizomadlin, Pelcitoclax, and Dasminapant in combination with a variety of drugs and investigational agents in selected tumor cell lines
The MDM2 inhibitor alrizomadlin, the Bcl-2/Bcl-xL inhibitor pelcitoclax, and the IAPs inhibitor dasminapant were evaluated both individually and in combination with standard of care and investigational anticancer small molecules within a complex spheroid model of solid tumors. . Complex spheroids include a stromal component modeled by human endothelial cells (HUVEC) and fibroblasts modeled by human mesenchymal stem cells (MSCs). The concentration ranges selected for each drug and investigational agent were based upon clinically achievable concentrations if the clinical Cmax of the agent was known.
Compounds. The drugs and investigational agents: alrizomadlin (APG-115; NSC831270), pelcitoclax (APG-1252; NSC835773), dasminapant (APG-1387;NSC834197), TAK-243 (NSC785004), copanlisib (NSC809693), olaparib (NSC753686), talazoparib (NSC767125), cobimetinib (NSC 768068), eltanexor (KPT-8602, NSC 794443), abemaciclib (NSC 768073), sotorasib (NSC818433), adagrasib (NSC 831453), MRTX-1133 (NSC 836407), Iadademestat (ORY1001, NSC 806812), and RMC-4630 (NSC839698), were obtained from the NCI Developmental Therapeutics Program Chemical Repository. The FDA-approved anticancer drug set is available from the Developmental Therapeutics Program at https://dtp.cancer.gov/organization/dscb/obtaining/available plates.htm. […] The stock solutions were prepared in dimethyl sulfoxide (DMSO, Sigma-Aldrich, St. Louis, MO, cat. D2650) at 800-fold the tested concentration and stored at -70 degrees C prior to their use. All drugs and investigational agents were tested over a range starting from a high concentration at or near the clinical Cmax and decreasing in half-log increments. If the clinical Cmax for an agent had not been determined, the highest concentration tested was 10 microM.
The patient-derived cancer (PDC) cell lines include five colon adenocarcinomas: 186277-243-T-J2-PDC, 616215-338-R-J1-PDC, 439559-082-T-J2-PDC, 463943-066-T-J2-PDC, and 519858-162-T-J1-PDC; three pancreatic carcinomas: 323965-272-R-J2-PDC, 521955-158-R6-J3-PDC, and 521955-158-R2-J5-PDC; two uterine sarcomas: 327498-152-R-J2-PDC and 993429-296-R-J1-PDC; two rhabdomyosarcomas: 755483-174-R-J1-PDC and 772245-204-R-J1-PDC; two soft tissue sarcomas: 126254-015-R-J1-PDC and 494315-158-R-J1-PDC; two malignant fibrous histiocytomas: 317291-083-R-J1-PDC and 596521-263-R-J1-PDC; two breast carcinomas: 171881-019-R-J1-PDC and 885512-296-R-J2-PDC; and one ovarian carcinoma: 6556581-035-R-J-PDC were obtained from the NCI PDMR, (https://pdmr.cancer.gov). The established cell lines HSSY-2 synovial sarcoma (RRID:CVCL 8719), SYO-1 synovial sarcoma (RRID:CVCL_7146), MPNST malignant peripheral neural sheath tumor were obtained from the Sloan Kettering Institute. The following established cell lines were purchased from the American Type Culture Collection (ATCC, Manassas, VA), Sor the received from the NCI repository:, PANC-1 pancreatic carcinoma (CRL-1469, RRID:CVCL_0480), OVCAR-5 ovarian carcinoma (RRID:CVCL_1628), OVCAR-8 ovarian carcinoma (RRID:CVCL_1629), , MCF-7 breast carcinoma (CRL-12584, RRID:CVCL_0031), MDA-MB-231 breast carcinoma (CRL-12532, RRID:CVCL_0062), NCI-H1876 small cell lung carcinoma (CRL-5902, RRID:CVCL_1503), NCI-H510A small cell lung carcinoma (HTB-184, RRID:CVCL_1565), NCI-H1417 (CRL-5869, RRID:CVCL_1469), and NCI-H196 small cell lung carcinoma (CRL-5823, RRID:CVCL_1509). Dr. Peter Houghton (Greehey Children's Cancer Research Institute, University of Texas Health Science Center, San Antonio, TX) provided Rh-18 rhabdomyosarcoma (RRID:CVCL_1659). Pooled donor human umbilical vein endothelial cells (HUVEC, Lonza, cat. CC-2519) and human mesenchymal stem cells (hMSC, Lonza, cat. PT-2501) were purchased from Lonza (Walkersville, MD).
Cell Culture. […]

[1] = curve of first compound, second compound 0.01 µM
[2] = curve of first compound, second compound 0.0316 µM
[3] = curve of first compound, second compound 0.1 µM
[4] = curve of first compound, second compound 0.316 µM
[5] = curve of first compound, second compound 1 µM
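Also: spheroids exposed to compounds for seven days before readout.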

SMILES: Cc1nc(N2CCC3(CC2)COC(C)C3N)c(CO)nc1Sc1ccnc(N)c1Cl (centres undefined) + CNC(C)C(=O)NC1CN(S(=O)(=O)c2cccc(S(=O)(=O)N3CCC4CCC(C(=O)NC(c5ccccc5)c5ccccc5)N4C(=O)C(NC(=O)C(C)NC)C3)c2)CCC2CCC(C(=O)NC(c3ccccc3)c3ccccc3)N2C1=O
- IC50 [1]: 0.103 µM
- IC50 [2]: < 0.00949 µM
- IC50 [3]: < 0.00949 µM
- IC50 [4]: < 0.00949 µM
- IC50 [5]: < 0.00949 µM
- viability, T/C (second compound 0.01 µM, first compound 0.00949 µM): 46.1%
- viability, T/C (second compound 0.01 µM, first compound 0.03 µM): 57.3%
- viability, T/C (second compound 0.01 µM, first compound 0.0949 µM): 50.5%
- viability, T/C (second compound 0.01 µM, first compound 0.3 µM): 35.6%
- viability, T/C (second compound 0.01 µM, first compound 0.949 µM): 23%
- viability, T/C (second compound 0.01 µM, first compound 3 µM): 24.7%
- viability, T/C (second compound 0.0316 µM, first compound 0.00949 µM): 41.4%
- viability, T/C (second compound 0.0316 µM, first compound 0.03 µM): 45.6%
- viability, T/C (second compound 0.0316 µM, first compound 0.0949 µM): 40.8%
- viability, T/C (second compound 0.0316 µM, first compound 0.3 µM): 32.7%
- viability, T/C (second compound 0.0316 µM, first compound 0.949 µM): 23.2%
- viability, T/C (second compound 0.0316 µM, first compound 3 µM): 18.2%
- viability, T/C (second compound 0.1 µM, first compound 0.00949 µM): 26.6%
- viability, T/C (second compound 0.1 µM, first compound 0.03 µM): 45.9%
- viability, T/C (second compound 0.1 µM, first compound 0.0949 µM): 20.3%
- viability, T/C (second compound 0.1 µM, first compound 0.3 µM): 29.9%
- viability, T/C (second compound 0.1 µM, first compound 0.949 µM): 30.1%
- viability, T/C (second compound 0.1 µM, first compound 3 µM): 18.5%
- viability, T/C (second compound 0.316 µM, first compound 0.00949 µM): 50.1%
- viability, T/C (second compound 0.316 µM, first compound 0.03 µM): 32%
- viability, T/C (second compound 0.316 µM, first compound 0.0949 µM): 22.1%
- viability, T/C (second compound 0.316 µM, first compound 0.3 µM): 24.7%
- viability, T/C (second compound 0.316 µM, first compound 0.949 µM): 23.5%
- viability, T/C (second compound 0.316 µM, first compound 3 µM): 11.4%
- viability, T/C (second compound 1 µM, first compound 0.00949 µM): 17.1%
- viability, T/C (second compound 1 µM, first compound 0.03 µM): 16.9%
- viability, T/C (second compound 1 µM, first compound 0.0949 µM): 21.7%
- viability, T/C (second compound 1 µM, first compound 0.3 µM): 24.9%
- viability, T/C (second compound 1 µM, first compound 0.949 µM): 19.1%
- viability, T/C (second compound 1 µM, first compound 3 µM): 12.2%

SMILES: Cc1nc(N2CCC3(CC2)COC(C)C3N)c(CO)nc1Sc1ccnc(N)c1Cl (centres undefined)
- viability, T/C (compound 0.00949 µM): 92.6% and 79% and 106%
- viability, T/C (compound 0.03 µM): 82.3% and 110% and 95.9%
- viability, T/C (compound 0.0949 µM): 82.2% and 74.3% and 36.2%
- viability, T/C (compound 0.3 µM): 47.3% and 50.9% and 53.9%
- viability, T/C (compound 0.949 µM): 31.6% and 34.4% and 28.9%
- viability, T/C (compound 3 µM): 22.1% and 20.2% and 18.8%
- IC50 (curve of compound): 0.291 µM and 0.325 µM and 0.073 µM

SMILES: NC1CCC(NC2CC2c2ccccc2)CC1 (centres undefined) + CNC(C)C(=O)NC1CN(S(=O)(=O)c2cccc(S(=O)(=O)N3CCC4CCC(C(=O)NC(c5ccccc5)c5ccccc5)N4C(=O)C(NC(=O)C(C)NC)C3)c2)CCC2CCC(C(=O)NC(c3ccccc3)c3ccccc3)N2C1=O
- IC50 [1]: < 0.000316 µM
- IC50 [2]: < 0.000316 µM
- IC50 [3]: < 0.000316 µM
- IC50 [4]: < 0.000316 µM
- IC50 [5]: < 0.000316 µM
- viability, T/C (second compound 0.01 µM, first compound 0.000316 µM): 27.4%
- viability, T/C (second compound 0.01 µM, first compound 0.001 µM): 38.9%
- viability, T/C (second compound 0.01 µM, first compound 0.00316 µM): 36.8%
- viability, T/C (second compound 0.01 µM, first compound 0.01 µM): 48.5%
- viability, T/C (second compound 0.01 µM, first compound 0.0316 µM): 50.3%
- viability, T/C (second compound 0.01 µM, first compound 0.1 µM): 45.1%
- viability, T/C (second compound 0.0316 µM, first compound 0.000316 µM): 36.4%
- viability, T/C (second compound 0.0316 µM, first compound 0.001 µM): 24.9%
- viability, T/C (second compound 0.0316 µM, first compound 0.00316 µM): 31.8%
- viability, T/C (second compound 0.0316 µM, first compound 0.01 µM): 37.5%
- viability, T/C (second compound 0.0316 µM, first compound 0.0316 µM): 28.9%
- viability, T/C (second compound 0.0316 µM, first compound 0.1 µM): 30%
- viability, T/C (second compound 0.1 µM, first compound 0.000316 µM): 32.6%
- viability, T/C (second compound 0.1 µM, first compound 0.001 µM): 27.7%
- viability, T/C (second compound 0.1 µM, first compound 0.00316 µM): 33.4%
- viability, T/C (second compound 0.1 µM, first compound 0.01 µM): 31.4%
- viability, T/C (second compound 0.1 µM, first compound 0.0316 µM): 45.8%
- viability, T/C (second compound 0.1 µM, first compound 0.1 µM): 28.4%
- viability, T/C (second compound 0.316 µM, first compound 0.000316 µM): 26.7%
- viability, T/C (second compound 0.316 µM, first compound 0.001 µM): 33.6%
- viability, T/C (second compound 0.316 µM, first compound 0.00316 µM): 37.8%
- viability, T/C (second compound 0.316 µM, first compound 0.01 µM): 29.1%
- viability, T/C (second compound 0.316 µM, first compound 0.0316 µM): 21.3%
- viability, T/C (second compound 0.316 µM, first compound 0.1 µM): 29.5%
- viability, T/C (second compound 1 µM, first compound 0.000316 µM): 25.9%
- viability, T/C (second compound 1 µM, first compound 0.001 µM): 8.86%
- viability, T/C (second compound 1 µM, first compound 0.00316 µM): 23.5%
- viability, T/C (second compound 1 µM, first compound 0.01 µM): 20%
- viability, T/C (second compound 1 µM, first compound 0.0316 µM): 21.7%
- viability, T/C (second compound 1 µM, first compound 0.1 µM): 25.7%

SMILES: O=C(c1cc(Cc2n[nH]c(=O)c3ccccc23)ccc1F)N1CCN(C(=O)C2CC2)CC1
- viability, T/C (compound 0.0316 µM): 81.5% and 67.3% and 77.6%
- viability, T/C (compound 0.1 µM): 57.5% and 87% and 85.7%
- viability, T/C (compound 0.316 µM): 70.2% and 82% and 67.8%
- viability, T/C (compound 1 µM): 41.8% and 56.8% and 65.6%
- viability, T/C (compound 3.16 µM): 32.3% and 51.1% and 43.3%
- viability, T/C (compound 10 µM): 30.1% and 17.6% and 22.7%
- IC50 (curve of compound): 0.713 µM and 2.73 µM and 2.21 µM
